Laboratory results taken from patent US20240109881A1, “Heteroaryl Compounds as Ligand Directed Degraders of IRAK4” (Bristol-Myers Squibb Company, priority 2022, published 2024).

What follows are compounds tested against T1, IRAK4 (Homo sapiens, UniProt Q9NWZ3) (assay: ALE THP1 HTRF (Advanced Lipoxidation End Product THP1 Homogeneous Time Resolved Fluorescence)). Settings: THP1 cells.
T1 construct: endogenous in cells; host or cells: THP-1 cells
T1 sequence (Q9NWZ3 1-460): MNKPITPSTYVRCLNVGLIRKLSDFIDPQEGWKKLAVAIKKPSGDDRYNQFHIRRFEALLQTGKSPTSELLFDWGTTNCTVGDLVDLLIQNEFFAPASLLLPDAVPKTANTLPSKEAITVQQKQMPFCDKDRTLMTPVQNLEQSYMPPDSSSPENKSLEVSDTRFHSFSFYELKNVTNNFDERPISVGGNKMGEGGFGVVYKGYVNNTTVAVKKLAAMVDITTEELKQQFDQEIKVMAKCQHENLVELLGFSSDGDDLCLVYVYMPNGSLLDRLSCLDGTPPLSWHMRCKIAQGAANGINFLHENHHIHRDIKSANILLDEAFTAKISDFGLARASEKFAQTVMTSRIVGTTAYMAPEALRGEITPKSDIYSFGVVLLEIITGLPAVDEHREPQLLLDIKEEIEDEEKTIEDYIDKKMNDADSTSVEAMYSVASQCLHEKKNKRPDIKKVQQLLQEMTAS
Type: cell-based
Method in brief: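 Cells lysed 45 min at room temperature; lysates normalized to total protein by BCA. Total IRAK4 detected by HTRF sandwich (anti-IRAK4-d2 plus anti-IRAK4-cryptate), incubated overnight in the dark at room temperature, read on a time-resolved fluorescence plate reader.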

SMILES | ALE THP1 HTRF YMIN [%] | EC50 [nM]
N#Cc1cnc2c(cnn2-c2cc(NC3CCCC3)c(-c3cn([C@H]4CC[C@H](C(=O)N5CCC(C(=O)Nc6ccc(N7CCC(=O)NC7=O)cc6)CC5)CC4)nn3)cn2)c1 [P-45, 1-[4-[4-[6-(5-Cyanopyrazolo[3,4-b]pyridin-1-yl)-4-(cyclopentylamino)-3-pyridyl]triazol-1-yl]cyclohexanecarbonyl]-N-[4-(2,4-dioxohexahydropyrimidin-1-yl)phenyl]piperidine-4-carboxamide] | 11.4 | 28
N#Cc1cnc2c(cnn2-c2cc(NC3CCCC3)c(C(=O)NC3CCC(CN4CCC(C(=O)Nc5ccc(C6CCC(=O)NC6=O)cc5)C(F)(F)C4)CC3)cn2)c1 (stereo not drawn) [P-46] | 31.5 | 74
N#Cc1cnc2c(cnn2-c2cc(NC3CCCC3)c(-c3cn([C@H]4CC[C@H](CN5CCC(C(=O)Nc6ccc(C7CCC(=O)NC7=O)cc6)CC5)CC4)nn3)cn2)c1 (stereo partly drawn) [P-47] | 14.1 | 110
N#Cc1cnc2c(ccn2-c2cc(NC3CCCC3)c(C(=O)NC3CCC(CCN4CCN(c5ccc(C6CCC(=O)NC6=O)cc5)CC4)CC3)cn2)c1 (stereo not drawn) [P-48] | 12.0 | 99
N#Cc1cnc2c(ccn2-c2cc(NC3CC3)c(C(=O)NC3CCC(CCN4CCN(c5ccc(C6CCC(=O)NC6=O)cc5)CC4)CC3)cn2)c1 (stereo not drawn) [P-49] | 10.9 | 21
CC(C)Nc1cc(-n2ncc3cc(C#N)cnc32)ncc1C(=O)NC1CCC(CCN2CCN(c3ccc(C4CCC(=O)NC4=O)cc3)CC2)CC1 (stereo not drawn) [P-50] | 7.5 | 11
N#Cc1cnc2c(cnn2-c2cc(NC3CC3)c(C(=O)NC3CCC(CCN4CCN(c5ccc(C6CCC(=O)NC6=O)cc5)CC4)CC3)cn2)c1 (stereo not drawn) [P-51] | 7.9 | 9
N#Cc1cnc2c(cnn2-c2cc(NC3CCCC3)c(C(=O)NC3CCC(CCN4CCC(Nc5cccc(C6CCC(=O)NC6=O)c5)CC4)CC3)cn2)c1 (stereo not drawn) [P-52] | 13.4 | 39
N#Cc1cnc2c(c1)ncn2-c1cc(NC2CCCC2)c(C(=O)N[C@H]2CC[C@H](CN3CCN(c4ccc5c(c4)C(=O)N(C4CCC(=O)NC4=O)C5=O)CC3)CC2)cn1 (stereo partly drawn) [P-53] | 37.6 | 1890
N#Cc1cnc2c(cnn2-c2cc(NC3CCCC3)c(-c3cn([C@H]4CC[C@H](CCN5CCN(c6ccc(C7CCC(=O)NC7=O)cc6)CC5)CC4)nn3)cn2)c1 (stereo partly drawn) [P-54, 1-(4-(Cyclopentylamino)-5-(1-((1r,4r)-4-(2-(4-(4-(2,6-dioxopiperidin-3-yl)phenyl)piperazin-1-yl)ethyl)cyclohexyl)-1H-1,2,3-triazol-4-yl)pyridin-2-yl)-1H-pyrazolo[3,4-b]pyridine-5-carbonitrile] | 14.6 | 31
N#Cc1cnc2c(cnn2-c2cc(NC3CCCC3)c(-n3cc([C@H]4CC[C@H](CN5CCN(c6ccc7c(c6)C(=O)N(C6CCC(=O)NC6=O)C7)CC5)CC4)nn3)cn2)c1 (stereo partly drawn) [P-55, 1-[4-(Cyclopentylamino)-5-[4-[4-[[4-[2-(2,6-dioxo-3-piperidyl)-3-oxo-isoindolin-5-yl]piperazin-1-yl]methyl]cyclohexyl]triazol-1-yl]-2-pyridyl]pyrazolo[3,4-b]pyridine-5-carbonitrile] | 10.3 | 15
N#Cc1cnc2c(cnn2-c2cc(NC3CCCC3)c(C(=O)NC3CCC(CCN4CCC(c5ccc(C6CCC(=O)NC6=O)cc5)CC4)CC3)cn2)c1 (stereo not drawn) [P-56] | 7.7 | 426
C[C@@H]1CN(c2ccc(C3CCC(=O)NC3=O)cc2)C[C@H](C)N1CCC1CCC(NC(=O)c2cnc(-n3ncc4cc(C#N)cnc43)cc2NC2CCCC2)CC1 (stereo partly drawn) [P-57] | 9.7 | 194
C[C@@H]1CN(c2ccc(C3CCC(=O)NC3=O)cc2)CCN1CCC1CCC(NC(=O)c2cnc(-n3ncc4cc(C#N)cnc43)cc2NC2CCCC2)CC1 (stereo partly drawn) [P-59] | 8.5 | 107
CN(CC1CCC(NC(=O)c2cnc(-n3ncc4cc(C#N)cnc43)cc2NC2CCCC2)CC1)C1CCN(c2ccc(C3CCC(=O)NC3=O)cc2)CC1 (stereo not drawn) [P-60] | 11.3 | 945

Next, values leading:

ALE THP1 HTRF YMIN [%] | EC50 [nM] | SMILES
9.2 | 101 | N#Cc1cnc2c(cnn2-c2cc(NC3CCCC3)c(C(=O)N[C@H]3CC[C@H](CCN4CCN(c5ccc6c(c5)C(=O)N(C5CCC(=O)NC5=O)C6=O)CC4)CC3)cn2)c1 (stereo partly drawn) [P-61]
6.6 | 70 | C[C@H]1CN(c2ccc(C3CCC(=O)NC3=O)cc2)CCN1CCC1CCC(NC(=O)c2cnc(-n3ncc4cc(C#N)cnc43)cc2NC2CCCC2)CC1 (stereo partly drawn) [P-62]
8.3 | 6 | N#Cc1cnc2c(cnn2-c2cc(N[C@H]3CCC[C@@H]3O)c(C(=O)NC3CCC(CCN4CCN(c5ccc(C6CCC(=O)NC6=O)cc5)CC4)CC3)cn2)c1 (stereo partly drawn) [P-63]
10.1 | 30 | CC(C)CNc1cc(-n2ncc3cc(C#N)cnc32)ncc1C(=O)NC1CCC(CCN2CCN(c3ccc(C4CCC(=O)NC4=O)cc3)CC2)CC1 (stereo not drawn) [P-64]
7.3 | 10 | CC(F)(F)CNc1cc(-n2ncc3cc(C#N)cnc32)ncc1C(=O)NC1CCC(CCN2CCN(c3ccc(C4CCC(=O)NC4=O)cc3)CC2)CC1 (stereo not drawn) [P-65]
11.2 | 6 | N#Cc1cnc2c(cnn2-c2cc(N[C@H]3CCC[C@H]3O)c(C(=O)NC3CCC(CCN4CCN(c5ccc(C6CCC(=O)NC6=O)cc5)CC4)CC3)cn2)c1 (stereo partly drawn) [P-66]
9.3 | 34 | C[C@H]1CN(c2ccc(C3CCC(=O)NC3=O)cc2)C[C@H](C)N1CCC1CCC(NC(=O)c2cnc(-n3ncc4cc(C#N)cnc43)cc2NC2CCCC2)CC1 (stereo partly drawn) [P-67]
19.3 | 136 | C[C@@H]1CN(c2ccc(C3CCC(=O)NC3=O)cc2)C[C@@H](C)N1CCC1CCC(NC(=O)c2cnc(-n3ncc4cc(C#N)cnc43)cc2NC2CCCC2)CC1 (stereo partly drawn) [P-68]
15.4 | 417 | N#Cc1cnc2c(cnn2-c2cc(NC3CCCC3)c(C(=O)N[C@H]3CC[C@H](CN4CCC(COc5ccc(C6CCC(=O)NC6=O)cc5)CC4)CC3)cn2)c1 (stereo partly drawn) [P-69]
8.2 | 3 | N#Cc1cnc2c(cnn2-c2cc(Nc3cnn(CC(F)(F)F)c3)c(C(=O)NC3CCC(CCN4CCN(c5ccc(C6CCC(=O)NC6=O)cc5)CC4)CC3)cn2)c1 (stereo not drawn) [P-70]
10.9 | 8 | CCNc1cc(-n2ncc3cc(C#N)cnc32)ncc1C(=O)NC1CCC(CCN2CCN(c3ccc(C4CCC(=O)NC4=O)cc3)CC2)CC1 (stereo not drawn) [P-71]
9.5 | 5 | N#Cc1cnc2c(cnn2-c2cc(NC3CC3)c(C(=O)NC3CCC(CCN4CCC(c5ccc(C6CCC(=O)NC6=O)cc5)CC4)CC3)cn2)c1 (stereo not drawn) [P-72]
8.1 | 58 | O=C1CCC(c2ccc(N3CCN(CCC4CCC(NC(=O)c5cnc(Nc6ccc7ncsc7c6)cc5NC5CCCC5)CC4)CC3)cc2)C(=O)N1 (stereo not drawn) [P-73]
9.4 | 8 | N#Cc1cnc2c(cnn2-c2cc(NC3CCOCC3)c(C(=O)NC3CCC(CCN4CCN(c5ccc(C6CCC(=O)NC6=O)cc5)CC4)CC3)cn2)c1 (stereo not drawn) [P-74]
11.4 | 62 | N#Cc1cnn2c(-c3cc(NC4CCCC4)c(C(=O)NC4CCC(CCN5CCN(c6ccc(C7CCC(=O)NC7=O)cc6)CC5)CC4)cn3)ccc2c1 (stereo not drawn) [P-75]
